Key:
Test in all cases: relative viability (nuclei count vs DMSO), 5 days (fraction); higher = more cells survive
[1] = compound: CN1CCC(CC1)OC2=CC(=C(C=C2)NC3=NC=C4C(=N3)N(C(=O)N4C)C5CCCC5)OC [AZ3146] + Nc1ncn([C@H]2C[C@H](O)[C@@H](CO)O2)c(=O)n1 [Decitabine] (partner 2 µM)
Method in brief: (§1)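 Cells from lung cancer lines were seeded into 1536-well plates and, one day later, dosed by pin tool. Treatments were either a single drug or a fixed dose of an anchor drug with five library-drug doses (not always all listed) in √10 steps. After 5 days, nuclei were stained in a one-step fixation (final 0.05% Triton X-100, 1% formaldehyde, 1 ug/ml Hoechst) and counted on 4× images, and relative viability is the treated-to-vehicle nuclei ratio, as the median of duplicate plates.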

[2] = compound: CCOC(=O)CCNc1cc(N2CCc3ccccc3CC2)nc(-c2ccccn2)n1 [GSK-J4] + C[C@@H](Oc1cc(-c2cnn(C3CCNCC3)c2)cnc1N)c1c(Cl)ccc(F)c1Cl [Crizotinib] (partner 1 µM)
Method in brief: as §1

[3] = compound: CN1CCC(CC1)OC2=CC(=C(C=C2)NC3=NC=C4C(=N3)N(C(=O)N4C)C5CCCC5)OC [AZ3146] + Cc1cc(Nc2cc(N3CCN(C)CC3)nc(Sc3ccc(NC(=O)C4CC4)cc3)n2)n[nH]1 [Tozasertib] (partner 0.1 µM)
Method in brief: as §1

[4] = compound: CN1CCC(CC1)OC2=CC(=C(C=C2)NC3=NC=C4C(=N3)N(C(=O)N4C)C5CCCC5)OC [AZ3146] + CC(=O)Nc1cccc(-n2c(=O)n(C3CC3)c(=O)c3c(Nc4ccc(I)cc4F)n(C)c(=O)c(C)c32)c1 [Trametinib] (partner 0.02 µM)
Method in brief: as §1

UMC-11
relative viability ([1]; first compound 0.08 µM): 0.435
relative viability ([1]; first compound 0.253 µM): 0.558
relative viability ([1]; first compound 0.8 µM): 0.454
relative viability ([1]; first compound 2.53 µM): 0.579
relative viability ([1]; first compound 8 µM): 0.385
relative viability ([2]; first compound 0.5 µM): 0.601
relative viability ([2]; first compound 1.581 µM): 0.557
relative viability ([2]; first compound 5 µM): 0.702
relative viability ([2]; first compound 15.81 µM): 0.666
relative viability ([2]; first compound 50 µM): 0.509
relative viability ([3]; first compound 0.08 µM): 0.177
relative viability ([3]; first compound 0.253 µM): 0.199
relative viability ([3]; first compound 0.8 µM): 0.204
relative viability ([3]; first compound 2.53 µM): 0.177
relative viability ([3]; first compound 8 µM): 0.183
relative viability ([4]; first compound 0.08 µM): 0.575
relative viability ([4]; first compound 0.253 µM): 0.725
relative viability ([4]; first compound 0.8 µM): 0.629
relative viability ([4]; first compound 2.53 µM): 0.626
relative viability ([4]; first compound 8 µM): 0.313

From the supplement of paper PMC10307832
